Test results taken from PubChem BioAssay (NCI).
“And” between values parts separate entries of the source, which are not always exact repeats. Equal entries are not always repeated.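 All cell lines were grown in 96-well plates and treated with compound for 48 hours. Abbreviation: GI50, concentration required for 50% inhibition of growth. TGI denotes the concentration required for complete inhibition of growth.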

Legend:
Test in all cases: growth of human tumour cells (NCI), 48 h
[1] = system: HCT-116 colon
[2] = system: HT29 colon
[3] = system: KM20L2 colon
[4] = system: M19-MEL melanoma
[5] = system: MALME-3M melanoma
[6] = system: SK-OV-3 ovarian
[7] = system: SNB-78 CNS
[8] = system: DLD-1 colon
[9] = system: DMS 273 small cell lung
[10] = system: NCI-H522 lung
[11] = system: U251 CNS

SMILES | TGI [1] | TGI [2] | TGI [3] [µM] | TGI [4] | TGI [5] [µM] | TGI [6] | TGI [7] [µM] | TGI [8] [µM] | TGI [9] [µM] | TGI [10] | TGI [11] [µM] | GI50 [9] [µM] | GI50 [1] [µM] | GI50 [3] [µM] | GI50 [4] [µM] | GI50 [5] [µM] | GI50 [10] [µM] | GI50 [7] [µM]
CCN1/C(=C/C(C)=C/c2sc3ccccc3[n+]2CC)Sc2ccccc21 | 1.42 µM | 1.72 µM | 2.03 | 2.16 µM | 1.71 | 0.375 µM | 2.51 |  |  |  |  |  |  |  |  |  |  | 
C=C1C(=O)OC2/C=C(\C)C(O)/C=C\C(C)(O)CC(OC(=O)/C(C)=C/C)C12 (stereo not drawn) | 30 µM | > 100 µM | > 38.5 | 37 µM | 40.4 | > 100 µM | > 100 | 28.3 | 37.3 | 26.2 µM | > 100 |  |  |  |  |  |  | 
CC(=O)Oc1c(OC(C)=O)c(-c2ccc(O)c(O)c2)c(O)c(O)c1-c1ccc(O)cc1 | > 100 µM | > 100 µM | > 100 | 53.7 µM and 68.5 µM | > 100 | > 100 µM | > 100 | > 100 | > 100 | 45.2 µM and 33 µM | > 100 | 67.1 | 36.1 | 40.7 | 18.1 | 51.3 | 20.1 | > 100
C/C(=N\Nc1ccc([N+](=O)[O-])cc1)C(=O)N(C)Nc1ccccc1 |  | > 100 µM | > 100 | > 100 µM |  | > 100 µM |  | > 100 | > 100 | > 100 µM | > 100 |  |  |  |  |  |  | 
O=c1c([Se]c2coc3ccccc3c2=O)coc2ccccc12 | 12.3 µM | 32.4 µM | 26.4 | 28.6 µM | 31.8 | 29.8 µM | 34.7 | 34 | 24 | 32.5 µM | 19.8 |  |  |  |  |  |  | 
CC(C)(C)OC(=O)NC(Cc1ccc([N+](=O)[O-])cc1)C(=O)NC(CCCCNC(=O)OCc1ccccc1)C(=O)ON1C(=O)CCC1=O (stereo not drawn) | > 100 µM | > 100 µM |  |  | > 100 | > 100 µM |  |  |  | > 100 µM | > 100 |  |  |  |  |  |  | 
Cc1ccc2[nH]c3c(C)c4ccncc4c(C)c3c2c1 | 1.61 µM | 2.58 µM | 5.57 | 2.75 µM | 4.16 | 4.38 µM | 4.64 | 2.34 | 2.13 | 2.28 µM | 2.46 |  |  |  |  |  |  | 
COc1ccc2c(c1)CC[C@@H]1C2CC[C@]2(C)C(=O)NC(=O)CC12 (stereo partly drawn) | > 100 µM | > 100 µM | > 100 | > 100 µM | > 100 | > 100 µM | > 100 | > 100 | > 100 | > 100 µM | > 100 |  |  |  |  |  |  | 
CSc1c(C#N)c2n(c3ccccc3[n+]2C)c2ncccc12 | > 100 µM | > 100 µM |  |  | 40.3 | > 100 µM |  |  |  | 48.6 µM | 70.8 |  |  |  |  |  |  | 
CCN(CC)CCCNC(=O)Cc1ccccc1Nc1c(Cl)cccc1Cl | 27.2 µM | 17.6 µM | 12.4 | 17.4 µM |  | 29.1 µM | 32.8 | 28.3 | 28.1 |  | 25.7 |  |  |  |  |  |  | 
CC(=O)c1cccc(NC2C(N)C(NC(=O)N(C)C)(C(C)O)C(C)(O)C2(O)COC(=O)c2c(C)cccc2O)c1 (stereo not drawn) | 0.0437 µM and 0.185 µM | 1.08 µM and 0.113 µM | 0.372 | 0.203 µM |  | 0.0808 µM and 0.205 µM | 0.0541 |  |  | 0.0641 µM | 0.109 |  |  |  |  |  |  | 
CN1C[C@@H]2CCCN2P1Oc1cccc2cccnc12 (stereo partly drawn) | 89 µM | > 100 µM |  |  | > 100 | > 100 µM |  |  |  | > 100 µM | > 100 |  |  |  |  |  |  | 
Cc1ccc(/C=N/Nc2ncccn2)s1 | > 100 µM | > 100 µM |  |  | > 100 | > 100 µM |  |  |  | > 100 µM | > 100 |  |  |  |  |  |  | 
Cc1[nH]c2ccccc2c1C=Nc1ccc(Oc2ccccc2)cc1 | 31.3 µM | 31.3 µM |  |  | 34.6 | 32 µM |  |  |  | 31.6 µM | 29.3 |  |  |  |  |  |  | 
COC(=O)CCCCC/C(=C\C(=O)C(Cl)(Cl)Cl)OC | 49.6 µM | 72.6 µM |  |  | 65.2 | > 100 µM |  |  |  | 41.1 µM | 90 |  |  |  |  |  |  | 
COc1ccc(C2S/C(=C\c3ccc(OC)cc3OC)C(=O)N2NC(=O)Cc2ccccc2)cc1 (stereo not drawn) | > 100 µM | > 100 µM |  | > 100 µM | > 100 | > 100 µM |  | > 100 | > 100 | > 100 µM | > 100 |  |  |  |  |  |  | 

SMILES | TGI [1] | TGI [2] | TGI [3] [µM] | TGI [4] | TGI [5] [µM] | TGI [6] | TGI [7] [µM] | TGI [8] [µM] | TGI [9] [µM] | TGI [10] | TGI [11] [µM] | GI50 [9] [µM] | GI50 [1] [µM] | GI50 [3] [µM] | GI50 [4] [µM] | GI50 [5] [µM] | GI50 [10] [µM] | GI50 [7] [µM]
Cc1nc(-c2nc([N+](=O)[O-])c([N+](=O)[O-])[nH]2)cs1 | > 100 µM | > 100 µM | > 100 | > 100 µM | > 100 | > 100 µM | > 100 | > 100 | > 100 | > 100 µM | > 100 |  |  |  |  |  |  | 
Nc1cccc(OCc2nc(N)nc(N)c2-c2ccc(Cl)cc2)c1 | > 100 µM | > 100 µM |  |  | > 100 | > 100 µM |  |  |  | > 100 µM | > 100 |  |  |  |  |  |  | 
CN(/N=C\c1ccc2ccccc2c1)C1=NCCCCN1 | > 100 µM | 38.2 µM |  |  | 30.1 | > 100 µM |  |  |  | 34 µM | 44.6 |  |  |  |  |  |  | 
C=C(Cl)C(Cl)(CBr)CCC(Cl)C(C)(C)Cl (stereo not drawn) | 2.02 µM | 0.968 µM |  |  | 22.8 | 70.8 µM |  |  |  | 23 µM | 1.69 |  |  |  |  |  |  | 
COc1cc2c(cc1OC)C(Cl)C(c1cc(OC)c(OC)c(OC)c1)=C2Cl (stereo not drawn) |  | 30.3 µM | 36.6 | 28.7 µM | 30.6 | 56.2 µM | 46.4 | 51.4 | 34.6 | 23 µM | 33 |  |  |  |  |  |  | 
N#Cc1c(NC(=S)NCc2ccccc2)sc2c1CCN(N1CCc3c(sc(NC(=S)NCc4ccccc4)c3C#N)C1)C2 | > 100 µM | > 100 µM |  |  | > 100 | > 100 µM |  |  |  | > 100 µM | > 100 |  |  |  |  |  |  | 
CCCCCCCSCC(O)COC(c1ccccc1)(c1ccccc1)c1ccccc1 (stereo not drawn) | > 100 µM | 68.5 µM |  |  | > 100 | > 100 µM |  |  |  | > 100 µM | > 100 |  |  |  |  |  |  | 
O=C(NC(Nc1ccc(F)c(Cl)c1)(C(F)(F)F)C(F)(F)F)C(C(F)(F)F)C(F)(F)F | 41.7 µM | 67.9 µM |  |  | 62 | > 100 µM |  |  |  | 44.8 µM | > 100 |  |  |  |  |  |  | 
O=C(/C=C/c1ccc(O)c(O)c1)OCCOC(=O)/C=C/c1ccc(O)c(O)c1 | 46.7 µM | 43.4 µM |  |  | > 100 | 55.5 µM |  |  |  | 46.9 µM | 59.2 |  |  |  |  |  |  | 
CSCCC(NC(c1ccccc1)c1ccccc1)[P+](=O)O (stereo not drawn) | > 100 µM | > 100 µM |  |  | > 100 | > 100 µM |  |  |  | > 100 µM | > 100 |  |  |  |  |  |  | 
CC1=C(C(=O)OC(C)C)C(c2ccccc2[N+](=O)[O-])C(C(=O)OC(CO[N+](=O)[O-])CO[N+](=O)[O-])=C(C)N1 (stereo not drawn) | 11.4 µM | 7.98 µM |  |  | 23.6 | 12.6 µM |  |  |  | 8.45 µM | 13.4 |  |  |  |  |  |  | 
Cc1cc(=Nc2ccc3c(c2)c(N)cc(C)[n+]3C)nc(N)n1C | > 100 µM | > 100 µM |  |  | > 100 | > 100 µM |  |  |  | > 100 µM | > 100 |  |  |  |  |  |  | 
O=C1c2cc(CCl)sc2C(=O)c2ccsc21 | 0.39 µM | 2.56 µM | 2.84 |  | 0.0781 | 3.36 µM | 0.746 | 2.16 | 1.12 | 1.12 µM | 1.14 |  |  |  |  |  |  | 
CCN(CC)CCNc1ccc(C)c2sc3ccc(O)cc3c(=O)c12 | 2.56 µM | 3.24 µM | 5.46 | 2.36 µM | 2.38 | 5.59 µM | 7.88 | 3.47 | 1.91 | 2.7 µM | 2.44 |  |  |  |  |  |  | 
CN1CCN(c2ccc3[nH]c(C4=C(O)c5nc(CO)n(C)c5C(=O)C4=O)nc3n2)CC1 | > 100 µM | > 100 µM |  |  | > 100 | > 100 µM |  |  |  | > 100 µM | > 100 |  |  |  |  |  |  | 
CCC1(C)N=C(C(N)=O)c2ncn(N=C(C)C)c2N1 (stereo not drawn) | > 100 µM | > 100 µM |  |  | > 100 | > 100 µM |  |  |  | > 100 µM | > 100 |  |  |  |  |  |  | 
